Here are results for 22 compounds from US20230279025A1, “KRAS G12D INHIBITORS” (Mirati Therapeutics, Inc., priority 2020, published 2023).

One may read the IC50 as the concentration that inhibits the measured activity by half. A high value points to lower potency.

For the assay, the target named is KRas G12D (Homo sapiens (Human), UniProt P01116, G12D). The assay can be described thus: KRas G12D Binding Assay (TR-FRET displacement of Cy5 labelled tracer). The following applies: GDP-loaded KRAS G12D (amino acids 1:169), 60 minute incubation at 22° C. The procedure: After a 60 minute incubation at 22° C., the reaction was measured using a PerkinElmer EnVision multimode plate reader via TR-FRET dual wavelength detection, and the percent of control (POC) calculated using a ratiometric emission factor. […] The POC values were fit to a 4-parameter logistic curve and the IC50 value was determined as the concentration where the curve crosses 50 POC.
KRas G12D, sequence (P01116 other isoform, or with tags, fused parts or gaps G12D): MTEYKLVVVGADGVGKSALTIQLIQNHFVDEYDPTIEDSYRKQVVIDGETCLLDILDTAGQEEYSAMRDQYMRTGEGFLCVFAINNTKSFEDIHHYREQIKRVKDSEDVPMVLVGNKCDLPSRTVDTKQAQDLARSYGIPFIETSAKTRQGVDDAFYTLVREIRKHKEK
ND stands for “not determined.”

The compound `Fc1ccc2cccc(-c3ncc4c(N5C[C@H]6CC[C@@H](C5)N6)nc(OC[C@@]56CCCN5C[C@H](F)C6)nc4c3F)c2c1F` [Example 430, 4-((1R,5S)-3,8-diazabicyclo[3.2.1]octan-3-yl)-7-(7,8-difluoronaphthalen-1-yl)-8-fluoro-2-(((2R,7aS)-2-fluorotetrahydro-1H-pyrrolizin-7a(5H)-yl)methoxy)pyrido[4,3-d]pyrimidine] registered an IC50 of 1 nM.
`CCc1cccc2cc(O)cc(-c3ncc4c(N5C[C@H]6CC[C@@H](C5)N6)nc(OC[C@]56CCCN5[C@@H](COC(=O)NC)CC6)nc4c3F)c12` [Example 433, ((3R,7aR)-7a-(((4-((1R,5S)-3,8-diazabicyclo[3.2.1]octan-3-yl)-7-(8-ethyl-3-hydroxynaphthalen-1-yl)-8-fluoropyrido[4,3-d]pyrimidin-2-yl)oxy)methyl)hexahydro-1H-pyrrolizin-3-yl)methyl methylcarbamate] displayed an IC50 of 0.9 nM.
For `CCc1cccc2cc(O)cc(-c3ncc4c(N5CC6CCC(C5)N6)nc(OC[C@]56CCCN5[C@@H](COC(=O)N(C)C)CC6)nc4c3F)c12` [Example 434, 7a-(((4-((1R,5S)-3,8-diazabicyclo[3.2.1]octan-3-yl)-7-(8-ethyl-3-hydroxynaphthalen-1-yl)-8-fluoropyrido[4,3-d]pyrimidin-2-yl)oxy)methyl)hexahydro-1H-pyrrolizin-3-yl)methyl dimethyl carbamate] the value was 0.7 nM; for `CNC(=O)O[C@@H]1CN2CCC[C@]2(COc2nc(N3C[C@H]4CC[C@@H](C3)N4)c3cnc(-c4cccc5cccc(Cl)c45)c(F)c3n2)C1` [Example 435, (2S,7aR)-7a-(((4-((1R,5S)-3,8-diazabicyclo[3.2.1]octan-3-yl)-7-(8-chloronaphthalen-1-yl)-8-fluoropyrido[4,3-d]pyrimidin-2-yl)oxy)methyl)hexahydro-1H-pyrrolizin-2-yl methylcarbamate], 28.2 nM.
In the case of `O=C(O[C@@H]1CN2CCC[C@]2(COc2nc(N3C[C@H]4CC[C@@H](C3)N4)c3cnc(-c4cccc5cccc(Cl)c45)c(F)c3n2)C1)N1CCOCC1` [Example 436, (2S,7aR)-7a-(((4-((1R,5S)-3,8-diazabicyclo[3.2.1]octan-3-yl)-7-(8-chloronaphthalen-1-yl)-8-fluoropyrido[4,3-d]pyrimidin-2-yl)oxy)methyl)hexahydro-1H-pyrrolizin-2-yl morpholine-4-carboxylate] it was 48.3 nM; in that of `Fc1c(-c2cccc3c2C(C2CC2)CC3)ncc2c(N3CC4CCC(C3)N4)nc(OC[C@@]34CCCN3C[C@H](F)C4)nc12` (stereo partly drawn) [Example 437, 4-(3,8-diazabicyclo[3.2.1]octan-3-yl)-7-(3-cyclopropyl-2,3-dihydro-1H-inden-4-yl)-8-fluoro-2-(((2R,7aS)-2-fluorotetrahydro-1H-pyrrolizin-7a(5H)-yl)methoxy)pyrido[4,3-d]pyrimidine], 234 nM.
In turn, `Fc1c(-c2cccc3c2CC2CC32)ncc2c(N3CC4CCC(C3)N4)nc(OC[C@@]34CCCN3C[C@H](F)C4)nc12` (stereo partly drawn) [Example 438, 4-(3,8-diazabicyclo[3.2.1]octan-3-yl)-8-fluoro-2-(((2R,7aS)-2-fluorotetrahydro-1H-pyrrolizin-7a(5H)-yl)methoxy)-7-(1,1a,6,6a-tetrahydrocyclopropa[a]inden-5-yl)pyrido[4,3-d]pyrimidine] had an IC50 of 20.1 nM.
For `C#Cc1c(F)ccc2cccc(-c3ncc4c(N5C[C@H]6CC[C@@H](C5)N6)nc(OC[C@]56CCCN5[C@@H](COC(=O)N(C)C)CC6)nc4c3F)c12` [Example 439, ((3R,7aR)-7a-(((4-((1R,5S)-3,8-diazabicyclo[3.2.1]octan-3-yl)-7-(8-ethynyl-7-fluoronaphthalen-1-yl)-8-fluoropyrido[4,3-d]pyrimidin-2-yl)oxy)methyl)hexahydro-1H-pyrrolizin-3-yl)methyl dimethylcarbamate] the value was 0.4 nM; for `CCc1c(F)ccc2cc(O)cc(-c3ncc4c(N5C[C@H]6CC[C@@H](C5)N6)nc(OC[C@]56CCCN5[C@@H](COC(=O)N(C)C)CC6)nc4c3F)c12` [Example 441, ((3R,7aR)-7a-(((4-((1R,5S)-3,8-diazabicyclo[3.2.1]octan-3-yl)-7-(8-ethyl-7-fluoro-3-hydroxynaphthalen-1-yl)-8-fluoropyrido[4,3-d]pyrimidin-2-yl)oxy)methyl)hexahydro-1H-pyrrolizin-3-yl)methyl dimethylcarbamate], 0.5 nM.
In the case of `O=C1OCCN1C[C@H]1CC[C@@]2(COc3nc(N4CC5CCC(C4)N5)c4cnc(-c5cccc6cccc(Cl)c56)c(F)c4n3)CCCN12` [Example 442, 3-(((3R,7aR)-7a-(((4-(3,8-diazabicyclo[3.2.1]octan-3-yl)-7-(8-chloronaphthalen-1-yl)-8-fluoropyrido[4,3-d]pyrimidin-2-yl)oxy)methyl)hexahydro-1H-pyrrolizin-3-yl)methyl)oxazolidin-2-one] it was 25 nM.
The compound `O=C(OC[C@H]1CC[C@@]2(COc3nc(N4CC5CCC(C4)N5)c4cnc(-c5cccc6cccc(Cl)c56)c(F)c4n3)CCCN12)N1CCCC1` [Example 443, ((3R,7aR)-7a-(((4-(3,8-diazabicyclo[3.2.1]octan-3-yl)-7-(8-chloronaphthalen-1-yl)-8-fluoropyrido[4,3-d]pyrimidin-2-yl)oxy)methyl)hexahydro-1H-pyrrolizin-3-yl)methyl pyrrolidine-1-carboxylate] gave a 50% inhibitory concentration (IC50) of 3.2 nM.
For `O=C(OC[C@H]1CC[C@@]2(COc3nc(N4CC5CCC(C4)N5)c4cnc(-c5cccc6cccc(Cl)c56)c(F)c4n3)CCCN12)N1CCCCC1` [Example 444, ((3R,7aR)-7a-(((4-(3,8-diazabicyclo[3.2.1]octan-3-yl)-7-(8-chloronaphthalen-1-yl)-8-fluoropyrido[4,3-d]pyrimidin-2-yl)oxy)methyl)hexahydro-1H-pyrrolizin-3-yl)methyl piperidine-1-carboxylate] the value was 5.5 nM.
Compound `O=C(OC[C@H]1CC[C@@]2(COc3nc(N4CC5CCC(C4)N5)c4cnc(-c5cccc6cccc(Cl)c56)c(F)c4n3)CCCN12)N1CCOCC1` [Example 445, ((3R,7aR)-7a-(((4-(3,8-diazabicyclo[3.2.1]octan-3-yl)-7-(8-chloronaphthalen-1-yl)-8-fluoropyrido[4,3-d]pyrimidin-2-yl)oxy)methyl)hexahydro-1H-pyrrolizin-3-yl)methyl morpholine-4-carboxylate] had an IC50 of 2.7 nM. This IC50 lies about 2-fold lower than the previous one.
With `Cn1ccc2cccc(-c3ncc4c(N5C[C@H]6CC[C@@H](C5)N6)nc(OCC56CCCN5CCC6)nc4c3F)c21` [Example 446, 4-((1R,5S)-3,8-diazabicyclo[3.2.1]octan-3-yl)-8-fluoro-7-(1-methyl-1H-indol-7-yl)-2-((tetrahydro-1H-pyrrolizin-7a(5H)-yl)methoxy)pyrido[4,3-d]pyrimidine], the IC50 was 357 nM. This IC50 lies about 130-fold higher than the previous one.
`CCCc1ccccc1-c1ncc2c(N3C[C@H]4CC[C@@H](C3)N4)nc(OCC34CCCN3CCC4)nc2c1F` [Example 447, 4-((1R,5S)-3,8-diazabicyclo[3.2.1]octan-3-yl)-8-fluoro-7-(2-propylphenyl)-2-((tetrahydro-1H-pyrrolizin-7a-(5H)-yl)methoxy)pyrido[4,3-d]pyrimidine]: the IC50 is 297 nM. The IC50 values of the last two compounds are within 1.5-fold of each other.
For `Fc1c(-c2ccccc2C2CC2)ncc2c(N3C[C@H]4CC[C@@H](C3)N4)nc(OC[C@@]34CCCN3C[C@H](F)C4)nc12` [Example 448, 4-((1R,5S)-3,8-diazabicyclo[3.2.1]octan-3-yl)-7-(2-cyclopropylphenyl)-8-fluoro-2-(((2R,7aS)-2-fluorohexahydro-1H-pyrrolizin-7a-yl)methoxy)pyrido[4,3-d]pyrimidine] the value was 130 nM.
On to `CCc1cccc2cc(O)cc(-c3ncc4c(N5C[C@H]6CC[C@@H](C5)N6)ncnc4c3F)c12` [Example 449, 4-(4-((1R,5S)-3,8-diazabicyclo[3.2.1]octan-3-yl)-8-fluoropyrido[4,3-d]pyrimidin-7-yl)-5-ethylnaphthalen-2-ol], for which the half-inhibitory concentration (IC50) turned out to be 71 nM.
In the case of `CC(Oc1nc(N2C[C@H]3CC[C@@H](C2)N3)c2cnc(-c3cccc4cccc(F)c34)c(F)c2n1)C12CCCN1CCC2` (stereo partly drawn) [Example 450, 4-((1R,5S)-3,8-diazabicyclo[3.2.1]octan-3-yl)-8-fluoro-7-(8-fluoronaphthalen-1-yl)-2-(1-(hexahydro-1H-pyrrolizin-7a-yl)ethoxy)pyrido[4,3-d]pyrimidine] it was 37 nM.
In the case of `Nc1nc2c(-c3ncc4c(N5C[C@H]6CC[C@@H](C5)N6)nc(OCC56CCCN5CCC6)nc4c3F)cccc2s1` [Example 453, 4-(4-((1R,5S)-3,8-diazabicyclo[3.2.1]octan-3-yl)-8-fluoro-2-((hexahydro-1H-pyrrolizin-7a-yl)methoxy)pyrido[4,3-d]pyrimidin-7-yl)benzo[d]thiazol-2-amine] it was 27 nM.
For `Fc1c(-c2cccc3scnc23)ncc2c(N3C[C@H]4CC[C@@H](C3)N4)nc(OCC34CCCN3CCC4)nc12` [Example 454, 4-(4-((1R,5S)-3,8-diazabicyclo[3.2.1]octan-3-yl)-8-fluoro-2-((hexahydro-1H-pyrrolizin-7a-yl)methoxy)pyrido[4,3-d]pyrimidin-7-yl)benzo[d]thiazole] the value was 295 nM; for `Nc1nc2c(-c3ncc4c(N5C[C@H]6CC[C@@H](C5)N6)nc(OCC56CCCN5CCC6)nc4c3F)ccc(F)c2s1` [Example 455, 4-(4-((1R,5S)-3,8-diazabicyclo[3.2.1]octan-3-yl)-8-fluoro-2-((hexahydro-1H-pyrrolizin-7a-yl)methoxy)pyrido[4,3-d]pyrimidin-7-yl)-7-fluorobenzo[d]thiazol-2-amine], 17 nM.
The compound `Cc1cc2sc(N)nc2c(-c2ncc3c(N4C[C@H]5CC[C@@H](C4)N5)nc(OCC45CCCN4CCC5)nc3c2F)c1C` [Example 456, 4-(4-((1R,5S)-3,8-diazabicyclo[3.2.1]octan-3-yl)-8-fluoro-2-((hexahydro-1H-pyrrolizin-7a-yl)methoxy)pyrido[4,3-d]pyrimidin-7-yl)-5,6-dimethylbenzo[d]thiazol-2-amine] had a 50% inhibitory concentration (IC50) of 966 nM.
